Tests used:
[1] = tested on: cyclin D1; assay: Cyclin D1 percentage degradation in Calu-1 cells (immunoblotting); format: cell-based; conditions: 16 hours
Procedure: (§1) […] A: protein percentage degradation >=80%; B: protein percentage degradation <80%, and >=50%; C: protein percentage degradation <50%, and >=30%; D: protein percentage degradation <30%.
(§2) Cultured cells were washed with cold PBS once and lysed in cold RIPA buffer supplemented with protease inhibitors and phosphatase inhibitors (Beyotime Biotechnology). The solutions were then incubated at 4° C. for 30 min with gentle agitation to fully lysed cells. Cell lysates were centrifuged at 13,000 rpm for 10 min at 4° C. and pellets were discarded. Total protein concentrations in the lysates were determined following BCA assays (Beyotime Biotechnology). Cell lysates were mixed with Laemmli loading buffer and heated at 99° C. for 5 min. Proteins were resolved on SDS-PAGE and visualized using Western ECL Substrate kits on a ChemiDoc MP Imaging system (Bio-Rad). Protein bands were quantitated using the Image Lab software provided by Bio-Rad.

[2] = target: T1, CDK4 (Homo sapiens, UniProt P11802); assay: CDK4 percentage degradation in Calu-1 cells (immunoblotting); format: cell-based; conditions: Calu-1 cells, 16 hours; for inhibition at 10 µM: read-out: CDK4 Degradation (10 μM); for inhibition at 0.2 µM: 200 nM, read-out: CDK4 Degradation (200 nM)
T1 construct: endogenous in cells; host or cells: Calu-1
Procedure: as §1, §2

T1 sequence (P11802 2-303 limits assumed): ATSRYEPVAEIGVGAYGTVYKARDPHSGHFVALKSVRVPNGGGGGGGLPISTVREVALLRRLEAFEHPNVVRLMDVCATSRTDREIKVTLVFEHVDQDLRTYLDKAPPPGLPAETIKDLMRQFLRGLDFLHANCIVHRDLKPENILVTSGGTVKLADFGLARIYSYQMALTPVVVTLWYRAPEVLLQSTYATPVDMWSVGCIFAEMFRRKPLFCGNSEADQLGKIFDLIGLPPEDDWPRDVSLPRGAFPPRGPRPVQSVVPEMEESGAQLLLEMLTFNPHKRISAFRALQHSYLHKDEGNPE
T1 sequence (P24385 whole entry partner): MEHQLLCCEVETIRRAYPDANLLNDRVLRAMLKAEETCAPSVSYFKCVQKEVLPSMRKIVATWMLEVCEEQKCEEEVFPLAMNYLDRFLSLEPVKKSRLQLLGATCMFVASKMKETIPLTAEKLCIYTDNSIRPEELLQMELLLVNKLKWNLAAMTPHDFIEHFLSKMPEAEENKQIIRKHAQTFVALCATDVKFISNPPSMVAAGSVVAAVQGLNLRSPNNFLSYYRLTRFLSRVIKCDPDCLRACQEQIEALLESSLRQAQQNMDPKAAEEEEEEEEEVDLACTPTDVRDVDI
T1 sequence (Q16531 2-1140 limits assumed, further chain): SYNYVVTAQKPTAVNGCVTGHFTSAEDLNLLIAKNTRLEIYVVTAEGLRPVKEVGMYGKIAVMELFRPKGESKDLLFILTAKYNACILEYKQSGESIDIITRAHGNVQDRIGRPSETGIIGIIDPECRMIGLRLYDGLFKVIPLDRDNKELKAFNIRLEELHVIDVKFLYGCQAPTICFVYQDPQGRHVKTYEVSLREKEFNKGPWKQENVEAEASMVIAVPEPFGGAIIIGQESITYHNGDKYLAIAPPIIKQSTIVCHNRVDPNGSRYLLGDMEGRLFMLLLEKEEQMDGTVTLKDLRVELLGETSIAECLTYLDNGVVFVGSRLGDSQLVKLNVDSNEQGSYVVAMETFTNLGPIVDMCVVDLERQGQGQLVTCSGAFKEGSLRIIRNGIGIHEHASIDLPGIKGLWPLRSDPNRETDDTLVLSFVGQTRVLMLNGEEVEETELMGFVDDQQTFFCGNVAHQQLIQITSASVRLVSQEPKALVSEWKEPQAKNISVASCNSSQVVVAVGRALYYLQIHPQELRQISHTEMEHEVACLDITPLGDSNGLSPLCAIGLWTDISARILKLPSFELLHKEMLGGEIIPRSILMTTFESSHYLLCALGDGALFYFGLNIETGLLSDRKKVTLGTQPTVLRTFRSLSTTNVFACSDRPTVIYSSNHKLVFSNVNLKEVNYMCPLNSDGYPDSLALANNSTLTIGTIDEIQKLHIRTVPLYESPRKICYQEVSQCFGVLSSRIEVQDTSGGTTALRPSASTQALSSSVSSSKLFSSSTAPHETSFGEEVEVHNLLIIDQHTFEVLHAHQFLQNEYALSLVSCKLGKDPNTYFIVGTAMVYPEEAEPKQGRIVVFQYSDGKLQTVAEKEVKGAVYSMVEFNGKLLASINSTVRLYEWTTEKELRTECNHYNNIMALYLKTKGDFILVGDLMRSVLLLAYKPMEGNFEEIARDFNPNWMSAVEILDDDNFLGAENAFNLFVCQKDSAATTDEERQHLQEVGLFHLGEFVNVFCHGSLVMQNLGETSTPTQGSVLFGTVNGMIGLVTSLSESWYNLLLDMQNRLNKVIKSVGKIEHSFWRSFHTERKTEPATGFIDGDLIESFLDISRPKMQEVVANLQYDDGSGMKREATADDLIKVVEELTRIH

Cc1nc(NC(=O)c2ccccc2NC(=O)CCOCCOCCOCCOCCOCCOCCNC(=O)CN2CCN(c3ccc(Nc4ncc5cc6n(c5n4)C4(CCCCC4)CNC6=O)nc3)CC2)sc1C [CPD-327, N-(4,5-Dimethylthiazol-2-yl)-2-(2-oxo-1-(4-(6-((6′-oxo-7′,8′-dihydro-6′H-spiro[cyclohexane-1,9′-pyrazino[1′,2′:1,5]pyrrolo[2,3-d]pyrimidin]-2′-yl)amino)pyridin-3-yl)piperazin-1-yl)-6,9,12,15,18,21-hexaoxa-3-azatetracosan-24-amido)benzamide]
CyclinD1 Degradation (10 μM) [1]: A (protein percentage degradation >= 80%) | inhibition at 10 µM [2]: 50 to 80%

Cc1nc(NC(=O)c2ccccc2NC(=O)CCCCCCNC(=O)CN2CCN(c3ccc(Nc4ncc(F)c(-c5cc(F)c6nc(C)n(C(C)C)c6c5)n4)nc3)CC2)sc1C [CPD-305, N-(4,5-Dimethylthiazol-2-yl)-2-(7-(2-(4-(6-((5-fluoro-4-(4-fluoro-1-isopropyl-2-methyl-1H-benzo[d]imidazol-6-yl)pyrimidin-2-yl)amino)pyridin-3-yl)piperazin-1-yl)acetamido)heptanamido)benzamide]
CyclinD1 Degradation (10 μM) [1]: D (protein percentage degradation < 30%) | inhibition at 10 µM [2]: < 30%

CC(=O)c1c(C)c2cnc(Nc3ccc(N4CCN(CC(=O)NCCOCCOCCOCCOCCNC(=O)COc5ccc(C(=O)Nc6ncc(C)s6)c(C)c5)CC4)cn3)nc2n(C2CCCC2)c1=O [CPD-041, 4-((20-(4-(6-((6-Acetyl-8-cyclopentyl-5-methyl-7-oxo-7,8-dihydropyrido[2,3-d]pyrimidin-2-yl)amino)pyridin-3-yl)piperazin-1-yl)-2,19-dioxo-6,9,12,15-tetraoxa-3,18-diazaicosyl)oxy)-2-methyl-N-(5-methylthiazol-2-yl)benzamide]
CyclinD1 Degradation (200 nM) [1]: D (protein percentage degradation <30%) | inhibition at 0.2 µM [2]: < 30%

CC(=O)c1c(C)c2cnc(Nc3ccc(N4CCN(CC(=O)NCCOCCOCCC(=O)NC5CCCCC5C(=O)Nc5nc(C)c(C)s5)CC4)cn3)nc2n(C2CCCC2)c1=O (stereo not drawn) [CPD-179, 2-(3-(2-(2-(2-(4-(6-((6-Acetyl-8-cyclopentyl-5-methyl-7-oxo-7,8-dihydropyrido[2,3-d]pyrimidin-2-yl)amino)pyridin-3-yl)piperazin-1-yl)acetamido)ethoxy)ethoxy)propanamido)-N-(4,5-dimethylthiazol-2-yl)cyclohexane-1-carboxamide]
CyclinD1 Degradation (200 nM) [1]: D (protein percentage degradation <30%) | inhibition at 0.2 µM [2]: < 30%

Cc1nc(NC(=O)c2ccccc2NC(=O)CCCCCCCNC(=O)CN2CCN(c3ccc(Nc4ncc(F)c(-c5cc(F)c6nc(C)n(C(C)C)c6c5)n4)nc3)CC2)sc1C [CPD-306, N-(4,5-Dimethylthiazol-2-yl)-2-(8-(2-(4-(6-((5-fluoro-4-(4-fluoro-1-isopropyl-2-methyl-1H-benzo[d]imidazol-6-yl)pyrimidin-2-yl)amino)pyridin-3-yl)piperazin-1-yl)acetamido)octanamido)benzamide]
CyclinD1 Degradation (10 μM) [1]: D (protein percentage degradation < 30%) | inhibition at 10 µM [2]: < 30%

Cc1nc(NC(=O)c2ccccc2NC(=O)CCOCCOCCOCCOCCOCCOCCNC(=O)CN2CCN(c3ccc(Nc4ncc5cc(C(=O)N(C)C)n(C6CCCC6)c5n4)nc3)CC2)sc1C [CPD-299, 7-Cyclopentyl-2-((5-(4-(24-((2-((4,5-dimethylthiazol-2-yl)carbamoyl)phenyl)amino)-2,24-dioxo-6,9,12,15,18,21-hexaoxa-3-azatetracosyl)piperazin-1-yl)pyridin-2-yl)amino)-N,N-dimethyl-7H-pyrrolo[2,3-d]pyrimidine-6-carboxamide]
CyclinD1 Degradation (10 μM) [1]: B (protein percentage degradation < 80%, and >= 50%) | inhibition at 10 µM [2]: 30 to 50%

Cc1nc(NC(=O)c2ccccc2NC(=O)CCCNC(=O)CN2CCN(c3ccc(Nc4ncc5cc6n(c5n4)C4(CCCCC4)CNC6=O)nc3)CC2)sc1C [CPD-316, N-(4,5-Dimethylthiazol-2-yl)-2-(4-(2-(4-(6-((6′-oxo-7′,8′-dihydro-6′H-spiro[cyclohexane-1,9′-pyrazino[1′,2′:1,5]pyrrolo[2,3-d]pyrimidin]-2′-yl)amino)pyridin-3-yl)piperazin-1-yl)acetamido)butanamido)benzamide]
CyclinD1 Degradation (10 μM) [1]: D (protein percentage degradation < 30%) | inhibition at 10 µM [2]: < 30%

CC(=O)c1c(C)c2cnc(Nc3ccc(N4CCN(CC(=O)NCCOCCOCCC(=O)Nc5cc(C)ccc5C(=O)Nc5nc(C)c(C)s5)CC4)cn3)nc2n(C2CCCC2)c1=O [CPD-149, 2-(3-(2-(2-(2-(4-(6-((6-Acetyl-8-cyclopentyl-5-methyl-7-oxo-7,8-dihydropyrido[2,3-d]pyrimidin-2-yl)amino)pyridin-3-yl)piperazin-1-yl)acetamido)ethoxy)ethoxy)propanamido)-N-(4,5-dimethylthiazol-2-yl)-4-methylbenzamide]
CyclinD1 Degradation (200 nM) [1]: A (protein percentage degradation >=80%) | inhibition at 0.2 µM [2]: > 80%

CC(=O)c1c(C)c2cnc(Nc3ccc(N4CCN(CC(=O)NCCOCCOCCC(=O)Nc5ccccc5C(=O)Nc5ncc(C)cn5)CC4)cn3)nc2n(C2CCCC2)c1=O [CPD-055, 2-(3-(2-(2-(2-(4-(6-((6-Acetyl-8-cyclopentyl-5-methyl-7-oxo-7,8-dihydropyrido[2,3-d]pyrimidin-2-yl)amino)pyridin-3-yl)piperazin-1-yl)acetamido)ethoxy)ethoxy)propanamido)-N-(5-methylpyrimidin-2-yl)benzamide]
CyclinD1 Degradation (200 nM) [1]: D (protein percentage degradation <30%) | inhibition at 0.2 µM [2]: < 30%

Cc1nc(NC(=O)c2ccccc2NC(=O)CCNC(=O)CN2CCN(c3ccc(Nc4ncc5cc(C(=O)N(C)C)n(C6CCCC6)c5n4)nc3)CC2)sc1C [CPD-287, 7-Cyclopentyl-2-((5-(4-(2-((3-((2-((4,5-dimethylthiazol-2-yl)carbamoyl)phenyl)amino)-3-oxopropyl)amino)-2-oxoethyl)piperazin-1-yl)pyridin-2-yl)amino)-N,N-dimethyl-7H-pyrrolo[2,3-d]pyrimidine-6-carboxamide]
CyclinD1 Degradation (10 μM) [1]: A (protein percentage degradation >= 80%) | inhibition at 10 µM [2]: 30 to 50%

CC(=O)c1c(C)c2cnc(Nc3ccc(N4CCN(CC(=O)NCCOCCOCCC(=O)Nc5ccccc5C(=O)Nc5ccc(C(F)(F)F)cn5)CC4)cn3)nc2n(C2CCCC2)c1=O [CPD-084, 2-(3-(2-(2-(2-(4-(6-((6-Acetyl-8-cyclopentyl-5-methyl-7-oxo-7,8-dihydropyrido[2,3-d]pyrimidin-2-yl)amino)pyridin-3-yl)piperazin-1-yl)acetamido)ethoxy)ethoxy)propanamido)-N-(5-(trifluoromethyl)pyridin-2-yl)benzamide]
CyclinD1 Degradation (200 nM) [1]: A (protein percentage degradation >=80%) | inhibition at 0.2 µM [2]: 50 to 80%

CC(=O)c1c(C)c2cnc(Nc3ccc(N4CCN(CC(=O)NCCOCCNc5cccc(C(=O)Nc6nc(C)c(C)s6)c5C)CC4)cn3)nc2n(C2CCCC2)c1=O [CPD-103, 3-((2-(2-(2-(4-(6-((6-Acetyl-8-cyclopentyl-5-methyl-7-oxo-7,8-dihydropyrido[2,3-d]pyrimidin-2-yl)amino)pyridin-3-yl)piperazin-1-yl)acetamido)ethoxy)ethyl)amino)-N-(4,5-dimethylthiazol-2-yl)-2-methylbenzamide]
CyclinD1 Degradation (200 nM) [1]: D (protein percentage degradation <30%) | inhibition at 0.2 µM [2]: < 30%
